Results on seven compounds are retold here after patent US20060229299A1, “5ht2c Receptor antagonists in the treatment of schizophrenia” (priority 2003, published 2006).

Series [1] relates to 5HT2A/2C mediated elevations of prolactin levels. Conditions: known from literature; cited from earlier work.
For series [2] the following is noted: rhesus monkeys; cited from earlier work.
Series [3] deals with M1 muscarinic acetylcholine receptor (Homo sapiens, UniProt P11229). The conditions noted are these: expressed as KD; cited from earlier work.
Chain of M1 muscarinic acetylcholine receptor (P11229 whole entry): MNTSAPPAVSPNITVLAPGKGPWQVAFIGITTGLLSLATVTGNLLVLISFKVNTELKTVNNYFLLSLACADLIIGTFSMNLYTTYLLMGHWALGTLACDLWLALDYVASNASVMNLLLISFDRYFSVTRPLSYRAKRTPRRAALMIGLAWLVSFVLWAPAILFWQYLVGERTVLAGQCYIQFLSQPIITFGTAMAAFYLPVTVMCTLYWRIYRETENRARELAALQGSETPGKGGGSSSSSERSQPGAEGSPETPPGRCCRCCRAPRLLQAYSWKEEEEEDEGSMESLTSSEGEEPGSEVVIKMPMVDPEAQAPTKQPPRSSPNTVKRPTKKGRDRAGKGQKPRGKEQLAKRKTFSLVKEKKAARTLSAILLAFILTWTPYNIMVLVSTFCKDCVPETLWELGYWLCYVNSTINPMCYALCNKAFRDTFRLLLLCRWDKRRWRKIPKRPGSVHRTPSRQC
For series [4], the target named is D1 dopamine receptor (Rattus norvegicus, UniProt P18901). The conditions noted are these: cited from earlier work.
Chain of D1 dopamine receptor (P18901 whole entry): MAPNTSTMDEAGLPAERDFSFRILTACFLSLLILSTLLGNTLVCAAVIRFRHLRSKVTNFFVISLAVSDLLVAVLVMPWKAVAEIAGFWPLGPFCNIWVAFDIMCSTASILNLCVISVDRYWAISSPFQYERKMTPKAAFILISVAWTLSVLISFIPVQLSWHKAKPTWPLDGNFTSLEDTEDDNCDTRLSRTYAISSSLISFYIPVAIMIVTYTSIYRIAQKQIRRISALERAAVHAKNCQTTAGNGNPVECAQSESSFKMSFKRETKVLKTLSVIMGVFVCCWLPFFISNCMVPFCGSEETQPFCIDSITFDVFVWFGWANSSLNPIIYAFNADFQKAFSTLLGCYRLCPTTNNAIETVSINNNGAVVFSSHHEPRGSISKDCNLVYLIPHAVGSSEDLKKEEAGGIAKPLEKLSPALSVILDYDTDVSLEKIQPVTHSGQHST
Series [5] deals with 5-HT2C receptor relative to 5-HT2A and D2 receptors. Description: Relative 5-HT2C affinity (formula I, sum of 5-HT2C/5-HT2A and 5-HT2C/D2 affinity ratios). The conditions noted are these: for (2C/2A) + (2C/D2): Table 2, sum of affinity ratios from data of Table 1.
For series [6], the target named is 5-HT6 receptor (Rattus norvegicus, UniProt P31388). Conditions: cited from earlier work.
Chain of 5-HT6 receptor (P31388 whole entry): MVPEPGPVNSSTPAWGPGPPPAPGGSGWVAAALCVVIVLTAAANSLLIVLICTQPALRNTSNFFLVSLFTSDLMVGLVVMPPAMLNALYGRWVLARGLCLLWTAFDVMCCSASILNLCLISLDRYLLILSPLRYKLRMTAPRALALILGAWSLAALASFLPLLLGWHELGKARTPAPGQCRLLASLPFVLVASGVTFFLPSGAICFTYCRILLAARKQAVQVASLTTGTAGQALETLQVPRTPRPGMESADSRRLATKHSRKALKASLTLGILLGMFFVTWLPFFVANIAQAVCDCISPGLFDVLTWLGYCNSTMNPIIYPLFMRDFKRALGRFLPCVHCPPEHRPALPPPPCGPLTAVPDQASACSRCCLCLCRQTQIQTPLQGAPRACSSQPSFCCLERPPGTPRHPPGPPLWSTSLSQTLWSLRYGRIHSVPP
Series [7] concerns 5-HT2C/D2. The experiment in a line: 5-HT2C/D2 receptor affinity ratio. The conditions noted are these: Table 2; affinity ratio from data of Table 1. Format: binding, human.
In series [8] the target is M2 muscarinic acetylcholine receptor (Homo sapiens, UniProt P08172). Conditions: expressed as KD; cited from earlier work.
Chain of M2 muscarinic acetylcholine receptor (P08172 whole entry): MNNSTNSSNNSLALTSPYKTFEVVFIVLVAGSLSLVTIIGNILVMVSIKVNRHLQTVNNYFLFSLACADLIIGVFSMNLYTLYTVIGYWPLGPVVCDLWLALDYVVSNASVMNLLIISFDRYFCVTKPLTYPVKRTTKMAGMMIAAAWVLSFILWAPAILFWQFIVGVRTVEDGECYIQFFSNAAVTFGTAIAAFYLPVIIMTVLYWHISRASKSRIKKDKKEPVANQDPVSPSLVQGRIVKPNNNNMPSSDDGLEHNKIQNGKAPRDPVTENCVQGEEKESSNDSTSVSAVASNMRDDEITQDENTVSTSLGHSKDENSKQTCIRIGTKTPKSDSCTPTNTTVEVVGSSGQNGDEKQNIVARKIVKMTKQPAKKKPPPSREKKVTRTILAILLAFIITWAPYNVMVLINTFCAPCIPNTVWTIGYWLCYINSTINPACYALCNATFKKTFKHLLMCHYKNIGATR
The target in series [9] is T1, M4 muscarinic acetylcholine receptor (Homo sapiens, UniProt P08173).
T1 sequence (P08173 1-479): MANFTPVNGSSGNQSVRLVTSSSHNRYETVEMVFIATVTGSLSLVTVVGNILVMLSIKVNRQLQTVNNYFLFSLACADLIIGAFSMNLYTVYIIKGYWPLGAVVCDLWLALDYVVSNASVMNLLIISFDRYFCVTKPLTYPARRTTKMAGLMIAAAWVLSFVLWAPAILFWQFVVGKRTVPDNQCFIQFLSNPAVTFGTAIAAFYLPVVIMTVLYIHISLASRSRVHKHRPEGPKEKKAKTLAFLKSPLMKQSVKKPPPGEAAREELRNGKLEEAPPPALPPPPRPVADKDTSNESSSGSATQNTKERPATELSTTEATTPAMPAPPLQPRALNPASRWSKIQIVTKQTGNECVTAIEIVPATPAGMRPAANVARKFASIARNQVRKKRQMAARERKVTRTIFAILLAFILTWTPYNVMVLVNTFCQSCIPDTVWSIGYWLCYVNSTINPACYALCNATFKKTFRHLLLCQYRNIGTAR
Conditions: expressed as KD; cited from earlier work.

The subject of series [10] is 5-HT2C/5-HT2A. The experiment in a line: 5-HT2C/5-HT2A receptor affinity ratio. Format: binding, human. The conditions noted are these: Table 2; affinity ratio from data of Table 1.
In series [11] the target is M3 muscarinic acetylcholine receptor (Homo sapiens, UniProt P20309). The conditions noted are these: expressed as KD; cited from earlier work.
Chain of M3 muscarinic acetylcholine receptor (P20309 whole entry): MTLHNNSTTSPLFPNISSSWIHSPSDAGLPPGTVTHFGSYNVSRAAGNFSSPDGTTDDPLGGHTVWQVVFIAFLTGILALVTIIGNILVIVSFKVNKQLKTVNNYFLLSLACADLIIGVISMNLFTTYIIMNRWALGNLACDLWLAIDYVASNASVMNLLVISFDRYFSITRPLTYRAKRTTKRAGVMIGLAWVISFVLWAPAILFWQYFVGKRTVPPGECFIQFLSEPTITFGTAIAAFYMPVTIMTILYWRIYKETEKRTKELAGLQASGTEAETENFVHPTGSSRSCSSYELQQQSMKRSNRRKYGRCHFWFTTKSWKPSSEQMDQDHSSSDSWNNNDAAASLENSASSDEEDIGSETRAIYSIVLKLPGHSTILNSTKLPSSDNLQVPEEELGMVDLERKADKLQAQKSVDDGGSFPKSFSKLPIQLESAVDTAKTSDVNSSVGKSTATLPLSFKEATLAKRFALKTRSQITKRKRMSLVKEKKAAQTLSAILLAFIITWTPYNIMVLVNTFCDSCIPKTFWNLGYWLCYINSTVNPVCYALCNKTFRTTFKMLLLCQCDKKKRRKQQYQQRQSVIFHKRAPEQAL
Series [12] concerns 5-HT2A/D2. The experiment in a line: 5-HT2A/D2 receptor affinity ratio. The series is classed as binding, human. Conditions: Table 2; affinity ratio from data of Table 1.
The target of series [13] is T2, M5 muscarinic acetylcholine receptor (Homo sapiens, UniProt P08912).
T2 sequence (P08912 1-532): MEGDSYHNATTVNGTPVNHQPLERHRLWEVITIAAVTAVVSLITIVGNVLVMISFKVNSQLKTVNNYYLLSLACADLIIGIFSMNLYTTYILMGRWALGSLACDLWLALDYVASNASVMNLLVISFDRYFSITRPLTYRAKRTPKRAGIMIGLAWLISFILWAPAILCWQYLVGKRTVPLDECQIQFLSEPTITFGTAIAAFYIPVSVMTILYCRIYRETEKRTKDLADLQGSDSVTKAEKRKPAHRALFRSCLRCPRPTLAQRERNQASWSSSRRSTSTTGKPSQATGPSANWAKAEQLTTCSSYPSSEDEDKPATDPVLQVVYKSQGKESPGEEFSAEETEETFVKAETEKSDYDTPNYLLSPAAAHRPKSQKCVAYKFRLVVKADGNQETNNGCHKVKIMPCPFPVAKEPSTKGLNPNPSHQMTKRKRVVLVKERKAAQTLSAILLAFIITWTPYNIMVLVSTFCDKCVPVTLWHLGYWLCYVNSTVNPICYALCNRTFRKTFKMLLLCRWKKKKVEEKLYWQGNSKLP
The conditions noted are these: expressed as KD; cited from earlier work.

Series [14] has as its target 5-HT7 receptor (Rattus norvegicus, UniProt P32305). The conditions noted are these: cited from earlier work.
In series [15] the target is T3, D4 dopamine receptor (Rattus norvegicus, UniProt P30729).
T3 sequence (P30729 1-387): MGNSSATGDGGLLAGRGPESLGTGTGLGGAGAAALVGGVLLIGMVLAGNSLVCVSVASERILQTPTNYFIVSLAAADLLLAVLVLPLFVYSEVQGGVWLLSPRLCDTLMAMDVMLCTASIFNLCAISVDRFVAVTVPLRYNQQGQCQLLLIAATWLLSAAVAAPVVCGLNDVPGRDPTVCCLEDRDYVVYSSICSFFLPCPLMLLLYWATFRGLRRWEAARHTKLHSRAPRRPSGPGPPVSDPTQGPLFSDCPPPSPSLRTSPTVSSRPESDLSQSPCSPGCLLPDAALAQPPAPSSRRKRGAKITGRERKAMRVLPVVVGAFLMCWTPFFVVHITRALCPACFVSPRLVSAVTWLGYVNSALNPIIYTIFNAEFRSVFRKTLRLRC
The conditions noted are these: cited from earlier work.

The target in series [16] is D2 receptor (Homo sapiens, UniProt P14416). The conditions noted are these: Table 3; expressed as pKi or pKd values; known affinities; cited from earlier work.
Chain of D2 receptor (P14416 whole entry): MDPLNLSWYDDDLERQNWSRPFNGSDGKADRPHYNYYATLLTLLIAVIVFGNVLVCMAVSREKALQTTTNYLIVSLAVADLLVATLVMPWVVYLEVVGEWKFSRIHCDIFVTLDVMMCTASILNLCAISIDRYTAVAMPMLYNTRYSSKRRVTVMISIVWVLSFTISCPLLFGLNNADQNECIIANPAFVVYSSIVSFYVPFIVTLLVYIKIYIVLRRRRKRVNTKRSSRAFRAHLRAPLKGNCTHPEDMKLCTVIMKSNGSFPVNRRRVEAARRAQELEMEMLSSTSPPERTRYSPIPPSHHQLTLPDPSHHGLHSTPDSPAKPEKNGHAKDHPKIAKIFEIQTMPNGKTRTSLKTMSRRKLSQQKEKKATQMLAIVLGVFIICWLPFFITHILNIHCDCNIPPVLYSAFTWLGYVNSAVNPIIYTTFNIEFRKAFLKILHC
For series [17], the target named is T4, 5-HT2C receptor (Homo sapiens, UniProt P28335).
T4 sequence (P28335 33-458): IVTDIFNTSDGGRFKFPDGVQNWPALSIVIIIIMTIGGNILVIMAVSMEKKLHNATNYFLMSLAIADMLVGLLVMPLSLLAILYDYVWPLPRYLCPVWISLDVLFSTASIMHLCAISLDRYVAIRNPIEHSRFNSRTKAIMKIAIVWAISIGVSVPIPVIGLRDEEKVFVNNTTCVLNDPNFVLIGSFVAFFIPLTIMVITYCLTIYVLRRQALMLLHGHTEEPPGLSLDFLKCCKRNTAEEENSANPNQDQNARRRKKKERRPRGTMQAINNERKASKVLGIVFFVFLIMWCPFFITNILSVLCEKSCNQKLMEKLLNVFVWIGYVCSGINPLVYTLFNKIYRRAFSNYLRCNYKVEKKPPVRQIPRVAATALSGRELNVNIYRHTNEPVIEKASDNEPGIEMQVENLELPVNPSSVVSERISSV
The conditions noted are these: active metabolite in man; U.S. Pat. No. 6,093,747; cited from earlier work.

Series [18] concerns the target 5-HT2A receptor (Homo sapiens, UniProt P28223). Conditions: Table 3; expressed as pKi or pKd values; known affinities; cited from earlier work.
For series [19], the system named is H1/D2. Description: H1/D2 receptor affinity ratio. The series is classed as binding, human. The conditions noted are these: Table 2; affinity ratio from data of Table 1.
Series [20] addresses 5-HT2C receptor (Rattus norvegicus, UniProt P08909). Conditions: cited from earlier work.
In series [21] the target is T5, D4 dopamine receptor (Homo sapiens, UniProt P21917).
T5 sequence (P21917 1-419): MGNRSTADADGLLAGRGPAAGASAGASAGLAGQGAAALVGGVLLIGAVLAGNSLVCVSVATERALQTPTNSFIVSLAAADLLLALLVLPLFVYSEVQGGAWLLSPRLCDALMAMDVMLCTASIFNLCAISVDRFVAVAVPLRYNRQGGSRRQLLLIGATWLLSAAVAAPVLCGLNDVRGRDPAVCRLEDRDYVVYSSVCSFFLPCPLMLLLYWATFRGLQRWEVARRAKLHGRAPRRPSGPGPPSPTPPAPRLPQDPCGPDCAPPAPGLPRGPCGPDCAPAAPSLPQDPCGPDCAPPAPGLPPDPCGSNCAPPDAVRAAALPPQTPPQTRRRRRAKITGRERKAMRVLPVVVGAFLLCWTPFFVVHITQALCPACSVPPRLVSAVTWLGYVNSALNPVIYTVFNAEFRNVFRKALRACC
Conditions: cited from earlier work.

The conditions of series [22]: Table 4A; grading of probability from literature reports; cited from earlier work.
Details of series [23]: key: 1-high; 2-medium; 3-low probability. Conditions: Table 4A; grading of probability from literature reports; cited from earlier work.
On the set-up of series [24]: key: 1-high; 2-medium; 3-low probability. Conditions: Table 4A; grading of probability from literature reports; cited from earlier work. The source holds these as a separate data set.
On the set-up of series [25]: key: 1-high; 2-medium; 3-low probability. The conditions noted are these: Table 4A; grading of probability from literature reports; cited from earlier work. This is another data set of the same source.
On the set-up of series [26]: key to Weight Gain: 1-high; 2-medium; 3-low probability. Conditions: cited from earlier work; for Weight Gain: Table 4A, grading of probability from literature reports.

Chain of 5-HT7 receptor (P32305 whole entry): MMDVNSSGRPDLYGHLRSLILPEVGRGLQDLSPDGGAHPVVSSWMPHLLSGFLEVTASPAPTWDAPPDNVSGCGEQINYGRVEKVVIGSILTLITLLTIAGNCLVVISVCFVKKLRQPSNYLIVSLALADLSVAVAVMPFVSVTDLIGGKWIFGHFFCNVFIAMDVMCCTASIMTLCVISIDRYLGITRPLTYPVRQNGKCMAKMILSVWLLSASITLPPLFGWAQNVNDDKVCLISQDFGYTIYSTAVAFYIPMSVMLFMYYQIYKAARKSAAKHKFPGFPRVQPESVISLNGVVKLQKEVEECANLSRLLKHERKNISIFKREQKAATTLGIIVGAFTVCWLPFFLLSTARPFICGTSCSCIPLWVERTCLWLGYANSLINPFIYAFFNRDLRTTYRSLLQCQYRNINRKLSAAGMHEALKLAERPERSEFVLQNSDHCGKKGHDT
Chain of 5-HT2A receptor (P28223 whole entry): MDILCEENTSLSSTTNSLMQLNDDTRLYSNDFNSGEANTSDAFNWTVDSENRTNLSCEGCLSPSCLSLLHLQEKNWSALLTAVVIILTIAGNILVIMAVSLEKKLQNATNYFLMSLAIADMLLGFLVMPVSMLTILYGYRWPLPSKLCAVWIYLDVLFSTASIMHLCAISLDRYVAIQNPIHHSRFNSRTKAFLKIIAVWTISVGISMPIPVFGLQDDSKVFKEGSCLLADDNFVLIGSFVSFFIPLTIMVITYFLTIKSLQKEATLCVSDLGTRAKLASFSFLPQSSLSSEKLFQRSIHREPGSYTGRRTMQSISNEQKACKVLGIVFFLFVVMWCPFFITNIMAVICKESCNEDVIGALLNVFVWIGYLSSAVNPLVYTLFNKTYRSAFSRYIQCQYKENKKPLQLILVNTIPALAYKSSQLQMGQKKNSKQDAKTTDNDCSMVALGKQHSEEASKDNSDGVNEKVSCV
Chain of 5-HT2C receptor (Rattus norvegicus, UniProt P08909) (P08909 33-460): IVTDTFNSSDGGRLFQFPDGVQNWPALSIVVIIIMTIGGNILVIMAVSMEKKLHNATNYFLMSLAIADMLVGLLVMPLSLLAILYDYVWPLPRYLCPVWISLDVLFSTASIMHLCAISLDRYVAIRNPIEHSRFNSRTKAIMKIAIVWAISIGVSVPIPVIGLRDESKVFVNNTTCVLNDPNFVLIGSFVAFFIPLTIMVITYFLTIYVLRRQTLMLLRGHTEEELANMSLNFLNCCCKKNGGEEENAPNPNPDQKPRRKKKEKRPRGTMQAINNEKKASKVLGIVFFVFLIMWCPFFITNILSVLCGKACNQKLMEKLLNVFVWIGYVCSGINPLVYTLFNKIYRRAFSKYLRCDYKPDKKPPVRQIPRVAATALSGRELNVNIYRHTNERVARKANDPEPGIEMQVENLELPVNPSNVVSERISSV

For the compound `CC(C)n1cc2c3c(cccc31)[C@H]1C[C@@H](C(=O)NC3CCCCC3)CN(C)[C@@H]1C2` [Amesergide, N-cyclohexyl-1-isopropyl-6-methyl-ergoline-8-carboxamide], the “effect on 5HT2A/2C mediated elevations of prolactin levels induced by D-fenfluramine” value in [1] is “block 5HT2A/2C mediated elevations of prolactin levels”. In [2], the “day of maximum values of parent compounds or metabolites (4-hydroxy and desisopropyl species)” value was 35 days; the “day of minimum values of parent compounds or metabolites” value is 365 days.
Regarding `CN1CCN(C2=Nc3cc(F)ccc3Cc3ccccc32)CC1` [Fluperlapine], the “M1 affinity value (−log KD)” value in [3] was 8.1^15. Also, the “D1 affinity value (−logKi)” value in [4] is listed as 6.8^8. Moreover, the “(2C/2A) + (2C/D2)” value in [5] worked out at 2.13. Besides, the “5-HT6 affinity value (−logKi)” value in series [6] is 7.8^2. For the same compound, the “5-HT2C/D2 (2C/D2)” value in [7] came out at 1.18. For the same compound, in series [8], the “M2 affinity value (−log KD)” value is 7.1^15. Further, the “M4 affinity value (−log KD)” value in [9] was 7.9^15. The “5-HT2C/5-HT2A (2C/2A)” value in series [10] is 0.95. Besides, in [11], the “M3 affinity value (−log KD)” value is given as 7.4^15. Further, the 5-HT2A/D2 in series [12] is on record as 1.25. The “M5 affinity value (−log KD)” value in series [13] is 7.7^15. Besides, the “5-HT7 affinity value (−logKi)” value in series [14] is recorded as 8.3^2. In addition, in [15], the “D4 affinity value (−logKi)” value is recorded as 6.9^4.
Regarding `CNCCO[C@]1(c2ccccc2)C[C@H]2CC[C@]1(C)C2(C)C` [N-Desmethyl-deramciclane, (1R,2S,4R)-(−)-2-phenyl-2-(methylaminoethoxy)-1,7,7-trimethyl-bicyclo[2.2.1]heptane], in [16], the “D2 Affinity” value is 7. The “Formula I Affinity Ratio” value in series [5] (Table 3, calculated from known 5-HT2C/5-HT2A/D2 affinities) is given as 2.20. In [17], the “5-HT2C receptor antagonism compared with deramciclane” value is recorded as “even more pronounced 5-HT2C receptor antagonism”. Besides, the “5-HT2A Affinity” value in [18] is listed as 7.
Regarding `CN1CC2c3ccccc3Oc3ccc(Cl)cc3C2C1` (stereo not shown) [ORG-5222], the “(2C/2A) + (2C/D2)” value in series [5] is recorded as 2.15. The H1/D2 in series [19] turned out to be 1.02. In series [7], the “5-HT2C/D2 (2C/D2)” value is 1.13. Further, the “5-HT2C/5-HT2A (2C/2A)” value in series [10] was 1.02. Besides, the 5-HT2A/D2 in series [12] stood at 1.10.
Regarding `O=c1[nH]c2ccccc2n1C1CCN(CCCC(c2ccc(F)cc2)c2ccc(F)cc2)CC1` [Pimozide], in series [6], the “5-HT6 affinity value (−logKi)” value was 7.2^2. For the same compound, the “5-HT2C affinity value (−logKi)” value in series [20] is recorded as <5^1. Besides, the “D4 affinity value (−logKi)” value is reported as 7.5^4 in [15] and 7.4^12 in [21].
For the compound `Cc1nc2n(c(=O)c1CCN1CCC(c3noc4cc(F)ccc34)CC1)CCCC2` [Risperidone], the Improvement cognitive deficits in [22] was 2-3. For the same compound, the Extra-pyramidal side effects in series [23] was 1. The Improvement negative symptoms in series [24] is on record as 3. Besides, the Increases prolactin levels in series [25] is on record as 1. Further, the “Weight Gain” value in series [26] is 2-3.
Regarding `OCCOCCN1CCN(C2=Nc3ccccc3Sc3ccccc32)CC1` [Seroquel], the Improvement cognitive deficits in [22] is reported as 2-3. The Extra-pyramidal side effects in [23] is recorded as 2. In addition, the Improvement negative symptoms in [24] is listed as 3. For the same compound, in series [25], the Increases prolactin levels is 3. Moreover, the “Weight Gain” value in [26] was 2. For the same compound, in series [26] (text b109, literature reports), the “weight gain (in words)” value is listed as “do cause weight gain”.
